Starred links: 1 amine or outer side, 2 acyl side, 3 side chain; linkers in the order of their positions; H or OH if unused. Positions of bridges follow the written chain, without caps; N, C: chain ends. Non-standard residues stand in square brackets, D forms with d. Residues, ends and D or L forms follow the SMILES beside them. Trp(7-aza) = N[C@@H](Cc1c[nH]c2ncccc12)C(=O)O; NMePhe(4-F) = CN[C@@H](Cc1ccc(F)cc1)C(=O)O; Phe(4-F) = N[C@@H](Cc1ccc(F)cc1)C(=O)O; mXylylene = c1cc(C[*:1])cc(C[*:2])c1; oXylylene = c1ccc(C[*:2])c(C[*:1])c1; pXylylene = c1cc(C[*:2])ccc1C[*:1]; Chg = N[C@H](C(=O)O)C1CCCCC1; Phg = N[C@H](C(=O)O)c1ccccc1; Tle = CC(C)(C)[C@H](N)C(=O)O; NMeS = CN[C@@H](CO)C(=O)O; NMeA = CN[C@@H](C)C(=O)O; Nva = CCC[C@H](N)C(=O)O; Sar = CNCC(=O)O

We go through 15 compounds from US10208089B2, “Modulation of complement activity” (priority 2014, dated 2019).

For one experiment, the target named is C5 (Homo sapiens, UniProt P01031). As to the kind of experiment: Human hemolysis assay (RBC lysis assay using complete human sera). Also noted: with complete human sera (Complement Technology, Tyler Tex.) and polypeptides; tissue Complement Technology, Tyler Tex; host or cells: complete human serum. The settings on record: inhibition of lysis of antibody-sensitized sheep erythrocytes, complete human sera. The experiment is classed as cell-based.
Chain of C5 (P01031 19-1676): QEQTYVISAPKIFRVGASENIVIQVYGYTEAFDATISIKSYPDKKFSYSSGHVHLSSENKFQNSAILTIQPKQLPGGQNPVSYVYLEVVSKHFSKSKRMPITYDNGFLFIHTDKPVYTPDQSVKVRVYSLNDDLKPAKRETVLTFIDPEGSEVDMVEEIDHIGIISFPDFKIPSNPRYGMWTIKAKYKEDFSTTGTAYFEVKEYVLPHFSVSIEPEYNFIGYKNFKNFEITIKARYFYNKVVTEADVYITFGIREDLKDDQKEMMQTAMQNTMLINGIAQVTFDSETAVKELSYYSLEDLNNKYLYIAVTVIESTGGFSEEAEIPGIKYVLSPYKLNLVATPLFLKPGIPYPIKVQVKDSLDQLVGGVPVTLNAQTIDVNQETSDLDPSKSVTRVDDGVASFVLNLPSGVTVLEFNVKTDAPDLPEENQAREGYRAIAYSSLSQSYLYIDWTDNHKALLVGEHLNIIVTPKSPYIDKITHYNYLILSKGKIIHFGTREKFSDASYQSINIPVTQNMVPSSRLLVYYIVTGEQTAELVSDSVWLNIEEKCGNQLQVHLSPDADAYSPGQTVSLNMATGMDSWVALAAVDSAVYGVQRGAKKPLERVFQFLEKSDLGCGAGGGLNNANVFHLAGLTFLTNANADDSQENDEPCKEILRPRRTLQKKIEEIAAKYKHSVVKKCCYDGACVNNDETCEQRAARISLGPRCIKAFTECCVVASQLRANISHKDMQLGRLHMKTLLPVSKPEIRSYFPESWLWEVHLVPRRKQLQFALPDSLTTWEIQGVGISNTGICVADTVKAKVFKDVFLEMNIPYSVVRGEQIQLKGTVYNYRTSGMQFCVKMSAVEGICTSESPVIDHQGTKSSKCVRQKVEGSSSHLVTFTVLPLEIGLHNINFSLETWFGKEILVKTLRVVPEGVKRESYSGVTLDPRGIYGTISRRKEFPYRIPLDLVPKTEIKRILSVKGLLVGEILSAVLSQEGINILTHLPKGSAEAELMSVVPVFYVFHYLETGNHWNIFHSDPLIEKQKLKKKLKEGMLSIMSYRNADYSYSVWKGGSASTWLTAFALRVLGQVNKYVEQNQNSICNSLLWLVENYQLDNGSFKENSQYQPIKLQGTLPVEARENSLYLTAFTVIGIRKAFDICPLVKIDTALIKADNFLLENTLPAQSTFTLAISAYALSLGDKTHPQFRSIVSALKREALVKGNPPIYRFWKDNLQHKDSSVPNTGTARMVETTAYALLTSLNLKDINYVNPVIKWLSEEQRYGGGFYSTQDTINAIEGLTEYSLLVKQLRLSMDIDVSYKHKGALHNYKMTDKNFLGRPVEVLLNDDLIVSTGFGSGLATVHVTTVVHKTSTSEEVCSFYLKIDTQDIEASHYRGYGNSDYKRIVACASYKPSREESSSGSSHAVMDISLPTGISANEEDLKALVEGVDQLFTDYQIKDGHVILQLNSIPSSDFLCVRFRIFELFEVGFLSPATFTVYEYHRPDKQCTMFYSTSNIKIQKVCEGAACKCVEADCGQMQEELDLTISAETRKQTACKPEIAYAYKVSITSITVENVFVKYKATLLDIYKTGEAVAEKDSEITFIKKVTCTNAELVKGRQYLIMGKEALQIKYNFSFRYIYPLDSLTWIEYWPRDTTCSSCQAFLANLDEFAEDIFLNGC
On to `CC(=O)N[C@H]1CSCc2cccc(c2)CSC[C@@H](C(=O)N[C@@H](CC(=O)O)C(=O)N[C@H](C(=O)N[C@@H](Cc2ccc(O)cc2)C(=O)N[C@@H](Cc2c[nH]c3ccccc23)C(=O)N[C@@H](CCC(=O)O)C(=O)N[C@@H](Cc2ccccc2)C(N)=O)C(C)C)NC(=O)[C@H](Cc2ccccc2)NC(=O)[C@H](CCCNC(=N)N)NC(=O)[C@H](CCC(=O)O)NC(=O)[C@H](C(C)C)NC1=O` [Compound R3048, [mXylyl(1,6)]Ac-C-V-E-R-F-C-D-V-Y-W-E-F-NH2] (Ac-CVERFCDVYWEF-NH2; linker 1-6 via mXylylene), for which the half-inhibitory concentration (IC50) came to 19.3 nM.

For the compound `CCC[C@H](NC(=O)[C@@H]1CSCc2ccccc2CSC[C@H](NC(=O)[C@H](CCC)NC(C)=O)C(=O)N[C@@H](c2ccccc2)C(=O)N[C@@H]([C@@H](C)O)C(=O)N[C@@H](Cc2c[nH]c3ncccc23)C(=O)N[C@@H](CCC(=O)O)C(=O)N[C@@H](Cc2ccc(O)cc2)C(=O)N(C)[C@@H](CO)C(=O)N[C@@H](Cc2c[nH]cn2)C(=O)N1)C(N)=O` [Compound R3049, [oXylyl(2,10)]Ac-Nvl-C-Phg-T-azaTrp-E-Y-(N-Me)S-H-C-Nvl-NE2] (Ac-[Nva]C[Phg]T[Trp(7-aza)]EY[NMeS]HC[Nva]-NH2; linker 2-10 via oXylylene), the 50% inhibitory concentration (IC50) was greater than 3100 nM.

Consider `CCC[C@H](N)C(=O)N[C@H]1CSCc2cccc(c2)CSC[C@@H](C(N)=O)NC(=O)CN(C)C(=O)[C@H](Cc2ccc(F)cc2)N(C)C(=O)[C@H](Cc2c[nH]cn2)NC(=O)[C@H](CO)N(C)C(=O)[C@H](Cc2ccc(F)cc2)N(C)C(=O)[C@H](c2ccccc2)NC(=O)[C@H](CO)N(C)C(=O)[C@H](Cc2ccc(O)cc2)NC1=O` [Compound R3051, [mXylyl(2,11)]Nvl-C-Y-(N-Me)S-Phg-(N-Me-4-F)Phe-(N-Me)S-H-(N-Me-4-F)-Phe-(N-Me)G-C-NH2] (H-[Nva]CY[NMeS][Phg][NMePhe(4-F)][NMeS]H[NMePhe(4-F)][Sar]C-NH2; linker 2-11 via mXylylene), for which the half-maximal inhibitory concentration (IC50) was greater than 100000 nM.

On to `CCC[C@H](N)C(=O)N[C@H]1CSCc2cccc(c2)CSC[C@@H](C(=O)N[C@H](C(=O)N(C)[C@@H](C)C(N)=O)c2ccccc2)NC(=O)[C@H](CC(C)C)NC(=O)CN(C)C(=O)[C@H](CC(N)=O)NC(=O)[C@H](c2ccccc2)NC(=O)[C@H](C(C)(C)C)NC(=O)[C@H](Cc2ccc(O)cc2)NC1=O` [Compound R3052, [mXylyl(2,9)]Nvl-C-Y-Tbg-Phg-N-(N-Me)G-L-C-Phg-(N-Me)A-NH2] (H-[Nva]CY[Tle][Phg]N[Sar]LC[Phg][NMeA]-NH2; linker 2-9 via mXylylene), for which the concentration for half-maximal inhibition (IC50) is greater than 100000 nM.

Consider `CCC[C@H](NC(=O)[C@@H](NC(=O)[C@@H]1CCCN1C(=O)[C@H](Cc1ccc(O)cc1)NC(=O)[C@H](CCC(=O)O)NC(=O)[C@H](Cc1c[nH]c2ncccc12)NC(=O)[C@H](Cc1ccc(O)cc1)NC(=O)[C@@H](NC(=O)[C@H](CC(=O)O)NC(=O)[C@@H]1CSCc2cccc(c2)CSC[C@H](NC(=O)[C@@H](N)CCSC)C(=O)N[C@@H](C(C)C)C(=O)N[C@@H](CCC(=O)O)C(=O)N[C@@H](CCCNC(=N)N)C(=O)N[C@@H](Cc2ccccc2)C(=O)N1)C(C)(C)C)c1ccccc1)C(N)=O` [Compound R3057, [mXylyl(2,7)]M-C-V-E-R-F-C-D-Tbg-Y-azaTrp-E-Y-P-Phg-Nvl-NH2] (H-MCVERFCD[Tle]Y[Trp(7-aza)]EYP[Phg][Nva]-NH2; linker 2-7 via mXylylene), for which the half-maximal inhibitory concentration (IC50) came out at 12.4 nM.

`CCC[C@H](NC(=O)[C@@H]1CSCc2ccc(cc2)CSC[C@H](NC(=O)[C@H](CCC)NC(C)=O)C(=O)N[C@@H](C2CCCCC2)C(=O)N[C@@H]([C@@H](C)O)C(=O)N[C@@H](Cc2c[nH]c3ncccc23)C(=O)N[C@@H](CCC(=O)O)C(=O)N[C@@H](Cc2ccc(O)cc2)C(=O)N(C)[C@@H](CO)C(=O)N[C@@H](Cc2c[nH]cn2)C(=O)N1)C(N)=O` [Compound R3058, [pXylyl(2,10)]Ac-Nvl-C-Chg-T-azaTrp-E-Y-(N-Me)S-H-C-Nvl-NH2] (Ac-[Nva]C[Chg]T[Trp(7-aza)]EY[NMeS]HC[Nva]-NH2; linker 2-10 via pXylylene): the half-maximal inhibitory concentration (IC50) is greater than 10000 nM.

`CCC[C@H](NC(=O)[C@@H]1CSCc2ccc(cc2)CSC[C@H](NC(=O)[C@H](CCC)NC(C)=O)C(=O)N[C@@H](c2ccccc2)C(=O)N[C@@H]([C@@H](C)O)C(=O)N[C@@H](Cc2c[nH]c3ncccc23)C(=O)N[C@@H](CCC(=O)O)C(=O)N[C@@H](Cc2ccc(O)cc2)C(=O)N2CCC[C@H]2C(=O)N[C@@H](Cc2c[nH]cn2)C(=O)N1)C(N)=O` [Compound R3065, [pXy1y1(2,10)]Ac-Nvl-C-PhE-T-azaTrp-E-Y-P-H-C-Nvl-NH2] (Ac-[Nva]C[Phg]T[Trp(7-aza)]EYPHC[Nva]-NH2; linker 2-10 via pXylylene): the half-inhibitory concentration (IC50) was 394 nM.

On to `CCC[C@H](NC(C)=O)C(=O)N[C@@H](CCC)C(=O)N[C@@H](Cc1ccc(O)cc1)C(=O)N[C@@H](CCC(=O)O)C(=O)N[C@@H](CC(N)=O)C(=O)N[C@H](C(=O)N[C@@H](Cc1ccc(O)cc1)C(=O)N[C@@H](Cc1c[nH]c2ncccc12)C(=O)N[C@@H](CCC(=O)O)C(=O)N[C@@H](Cc1ccc(O)cc1)C(=O)N1CCC[C@H]1C(=O)N[C@H](C(=O)N[C@@H](CCC)C(=O)N[C@@H](CCCCN)C(N)=O)C1CCCCC1)C(C)(C)C` [Compound R3072, Ac-Nvl-Nvl-Y-E-N-Tbg-Y-azaTrp-E-Y-P-Chg-Nvl-K-NH2] (Ac-[Nva][Nva]YEN[Tle]Y[Trp(7-aza)]EYP[Chg][Nva]K-NH2), for which the half-maximal inhibitory concentration (IC50) turned out to be 26.9 nM.

On to `CCC[C@H](NC(=O)[C@@H]1CSCc2cccc(c2)CSC[C@H](NC(=O)[C@H](CCC)NC(C)=O)C(=O)N[C@@H](c2ccccc2)C(=O)N[C@@H]([C@@H](C)O)C(=O)N[C@@H](Cc2c[nH]c3ncccc23)C(=O)N[C@@H](CCC(=O)O)C(=O)N[C@@H](Cc2ccc(F)cc2)C(=O)N(C)[C@@H](CO)C(=O)N[C@@H](Cc2c[nH]cn2)C(=O)N1)C(N)=O` [Compound R3073, [mXyly1(2,10)]Ac-Nvl-C-Phg-T-azaTrp-E-Phe(4-F)-(N-Me)S-H-C-Nvl-NH2] (Ac-[Nva]C[Phg]T[Trp(7-aza)]E[Phe(4-F)][NMeS]HC[Nva]-NH2; linker 2-10 via mXylylene), for which the 50% inhibitory concentration (IC50) stood at 403 nM.

Take `CCC[C@H](NC(=O)[C@@H]1CSCc2cccc(c2)CSC[C@H](NC(=O)[C@H](CCC)NC(C)=O)C(=O)N[C@@H](c2ccccc2)C(=O)N[C@@H]([C@@H](C)O)C(=O)N[C@@H](Cc2c[nH]c3ncccc23)C(=O)N[C@@H](CCC(=O)O)C(=O)N[C@@H](Cc2ccc(OC)cc2)C(=O)N(C)[C@@H](CO)C(=O)N[C@@H](Cc2c[nH]cn2)C(=O)N1)C(N)=O` [Compound R3074, [mXylyl(2,10)]Ac-Nvl-C-Phg-T-azaTrp-E-Tyr(OMe)-(N-Me)S-H-C-Nvl-NH2] (Ac-[Nva]C[Phg]T[Trp(7-aza)]EY(Me)[NMeS]HC[Nva]-NH2; linker 2-10 via mXylylene): the half-inhibitory concentration (IC50) stood at 308 nM.

As for `CCC[C@H](N)C(=O)N[C@H]1CSCc2cccc(c2)CSC[C@@H](C(N)=O)NC(=O)CNC(=O)[C@H](Cc2ccc(F)cc2)N(C)C(=O)[C@H](Cc2c[nH]cn2)NC(=O)[C@H](CO)N(C)C(=O)[C@H](Cc2ccc(F)cc2)N(C)C(=O)[C@H](c2ccccc2)NC(=O)[C@H](CO)N(C)C(=O)[C@H](Cc2ccc(O)cc2)NC1=O` [Compound R3075, [mXylyl(2,11)]Nvl-C-Y-(N-Me)S-Phg-(N-Me-4-F)Phe-(N-Me)S-H-(N-Me-4-F)Phe-G-C-NH2] (H-[Nva]CY[NMeS][Phg][NMePhe(4-F)][NMeS]H[NMePhe(4-F)]GC-NH2; linker 2-11 via mXylylene), the IC50 was greater than 75000 nM.

`CCC[C@H](NC(=O)[C@@H]1CSCc2cccc(c2)CSC[C@H](NC(=O)[C@H](CCC)NC(C)=O)C(=O)N[C@@H](c2ccccc2)C(=O)N[C@@H]([C@@H](C)O)C(=O)N[C@@H](Cc2c[nH]c3ncccc23)C(=O)N[C@@H](CCC(=O)O)C(=O)N[C@@H](Cc2ccc(O)cc2)C(=O)N(C)[C@@H](CO)C(=O)N1)C(N)=O` [Compound R3080, [mXylyl(2,9)]Ac-Nvl-C-Pha-T-azaTrp-E-Y-(N-Me)S-C-Nvl-NH2] (Ac-[Nva]C[Phg]T[Trp(7-aza)]EY[NMeS]C[Nva]-NH2; linker 2-9 via mXylylene): the IC50 was greater than 50000 nM.

Regarding `CCC[C@H](NC(=O)[C@@H]1CSCc2cccc(c2)CSC[C@H](NC(=O)[C@@H](NC(C)=O)C(C)C)C(=O)N[C@@H](c2ccccc2)C(=O)N[C@@H]([C@@H](C)O)C(=O)N[C@@H](Cc2c[nH]c3ncccc23)C(=O)N[C@@H](CCC(=O)O)C(=O)N[C@@H](Cc2ccc(O)cc2)C(=O)N(C)[C@@H](CO)C(=O)N[C@@H](C)C(=O)N1)C(N)=O` [Compound R3083, [mXylyl(2,10)]Ac-V-C-Phg-T-azaTrp-E-Y-(N-Me)S-A-C-Nvl-NH2] (Ac-VC[Phg]T[Trp(7-aza)]EY[NMeS]AC[Nva]-NH2; linker 2-10 via mXylylene), the IC50 is greater than 25000 nM.

With `CCC[C@H](NC(=O)[C@@H]1CSCc2cccc(c2)CSC[C@H](NC(=O)[C@H](CCC)NC(C)=O)C(=O)N[C@@H](c2ccccc2)C(=O)N[C@@H]([C@@H](C)O)C(=O)N[C@@H](Cc2c[nH]c3ncccc23)C(=O)N[C@@H](CCC(=O)O)C(=O)N[C@@H](Cc2ccc(O)cc2)C(=O)N[C@@H](CO)C(=O)N[C@@H](C)C(=O)N1)C(N)=O` [Compound R3084, [mXylyl(2,10)]Ac-Nvl-C-Phg-T-azaTrp-E-Y-S-A-C-Nvl-NH2] (Ac-[Nva]C[Phg]T[Trp(7-aza)]EYSAC[Nva]-NH2; linker 2-10 via mXylylene), the IC50 is greater than 100000 nM.

As to `CCC[C@H](NC(=O)[C@@H]1CSCc2cccc(c2)CSC[C@H](NC(=O)[C@H](CCC(=O)O)NC(=O)[C@H](Cc2ccc(O)cc2)NC(=O)[C@H](CO)NC(=O)[C@H](CCC)NC(C)=O)C(=O)N[C@@H](C(C)(C)C)C(=O)N[C@@H](Cc2ccc(O)cc2)C(=O)N[C@@H](Cc2c[nH]c3ncccc23)C(=O)N[C@@H](CCC(=O)O)C(=O)N[C@@H](Cc2ccc(O)cc2)C(=O)N2CCC[C@H]2C(=O)N[C@@H](C2CCCCC2)C(=O)N1)C(N)=O` [Compound R3086, [mXylyl(5,13)]Ac-Nvl-S-Y-E-C-Tbg-Y-azaTrp-E-Y-P-Chg-C-Nvl-NH2] (Ac-[Nva]SYEC[Tle]Y[Trp(7-aza)]EYP[Chg]C[Nva]-NH2; linker 5-13 via mXylylene), the half-inhibitory concentration (IC50) is greater than 50000 nM.

Staying with this experiment, now noted: variants of R3021, R3002 or R3008.
In the case of `CC(=O)N[C@H]1CSCc2cccc(c2)CSC[C@@H](C(=O)N[C@@H](CC(=O)O)C(=O)N[C@H](C(=O)N[C@@H](Cc2ccc(O)cc2)C(=O)N[C@@H](Cc2c[nH]c3ccccc23)C(=O)N[C@@H](CCC(=O)O)C(=O)N[C@@H](Cc2ccccc2)C(N)=O)C(C)C)NC(=O)[C@H](Cc2ccccc2)NC(=O)[C@H](CCCNC(=N)N)NC(=O)[C@H](CCC(=O)O)NC(=O)[C@H](C(C)C)NC1=O` [Compound R3048, [mXylyl(1,6)]Ac-C-V-E-R-F-C-D-V-Y-W-E-F-NH2] (Ac-CVERFCDVYWEF-NH2; linker 1-6 via mXylylene), the “ability to inhibit red blood cell lysis compared with the parent polypeptide (in words)” value is given as “increased the ability”.

As usually defined, the IC50 is the concentration at which inhibition is half-maximal.
